Reference: patent US11040052B2, “Methods and pharmaceutical compositions for modulating autophagy in a subject in need thereof” (INSERM (INSTITUT NATIONAL DE LA SANTE ET DE LA RECHERCHE …, priority 2013, dated 2021)
“Also recorded” adds a separate entry of the source.

What was measured:
[1] = tested on: starvation-induced autophagy in mice tissues; assay: Starved mice: tissue AcCoA, protein acetylation and starvation-induced autophagy; type: in vivo
Protocol: C57BL/6 mice (Charles River Laboratory, […], France) were bred and maintained according to both the FELASA and the Animal Experimental Ethics Committee Guidelines (Val de Marne, France). Mice were housed in a temperature-controlled environment with 12 h light/dark cycles and received food and water ad libitum. For HC-related experiments, mice were injected intraperitoneally with a single 100 mg/kg dose and 6 h later were sacrificed and tissues were immediately frozen in liquid nitrogen. […] Tissue extracts were then centrifuged at 12,000 g at 4° C. and supernatants were collected. Protein concentration in the supernatants was evaluated by the bicinchoninic acid technique (BCA protein assay kit, Pierce Biotechnology, Rockford, Ill.). For hydroxycitrate-related weight-loss experiments, autophagy-deficient Atg4b^-/- mice were used. Atg4b^-/- mice have been previously described (Mariño et al., 2010). For HC-, spermidine-, and resveratrol-related experiments (tumour growth) mice were intraperitoneally injected with respectively 100 mg/kg, 50 mg/kg and 100 mg/kg doses at day 8 and day 9. At day 9, mice were intraperitoneally injected with 2 mg/kg single dose of Mitoxanthrone. For starvation related experiment (tumour growth) mice were treated as previously described (Fabrizio et. al., 2010). To avoid post-mortem autophagy induction, dead mice were immediately perfused with 4% paraformaldehyde (w:v in PBS, pH 7.4). Tissues were then harvested and further fixed with the same solution for at least 4 h, followed by treatment with 15% sucrose (w:v in PBS) for 4 h and with 30% sucrose (w:v in PBS) overnight. Tissue samples were embedded in Tissue-Tek OCT compound (Sakura Finetechnical Co. Ltd., Tokyo, Japan) and stored at -70° C. […] In each organ, the number of GFP-LC3 dots was counted in five independent visual fields from at least five mice using a TCS SP2 confocal fluorescence microscope (Leica Microsystems GmbH). […]

KRas-induced lung cancer = KRas-induced lung cancer (AdCre inhalation); type: in vivo, mice
Protocol: Atg5fl/fl mice were kindly given by Dr Noboru Mizushima. LSL-K-rasG12D;Atg5fl/fl mice were obtained as described in^7. In all experiments, only littermate mice were used as controls. All mice were maintained according to the ethical animal licence protocol complying with the Austrian and European legislation. All experiments were approved by Bundesministerium for Wissenschaft and Forschung, Austria (BMWF-66.015/0013-II/3b/2012).
Inhalation of 6-8-week-old mice with AdCre viruses was performed as previously reported (REF). In brief, experimental animals were anaesthetized with 10% Ketasol/Xylasol and placed on a heated pad. An AdCre-CaCl2 precipitate was produced by mixing […], 2.5 ml AdCre (1010 p.f.u. ml_1; University of Iowa, Gene Transfer Vector Core Iowa, USA) and 0.6 ml CaCl2 (1 M) for each mouse and incubated for 20 min at room temperature. One week after AdCre inhalation, mice were administered with 900 mg/kg HC per body weight in drinking water for 5 weeks and tumors lesions were evaluated by immunohistochemistry.
For KRas-induced lung cancers hisology, […] sections from at least three different planes were cut and stained with haematoxylin and eosin. Sections were scanned using a Mirax slide scanner and lung/tumour areas were automatically scored by an algorithm programmed and executed using the Definiens software suite and visually analyzed in a double blinded fashion. Immunhistochemical staining was performed by automatic staining machine (Leica Bond3) or manually processed. Sections were dehydrated and antigenic epitopes were retrieved using a 10-mM citrate buffer and microwaving for 10 min. Specimen were then incubated with rabbit polyclonal anti-Foxp3 (eBioscience, 13-5773, :100), anti-CD3E (Santa Cruz, 101442, 1:100). Primary Ab staining was detected by peroxidase conjugated anti-rabbit IgG (DAKO, P0448, 1:500). Positive cells were counted on 20 randomly chosen tumour areas at _400 magnifications in a double blinded fashion. Quantitative analysis was performed using HistoQuest software (TissueGnostics GmbH, Vienna, Austria; http://www.tissuegnostics.com).

[2] = tested on: CT26 derived tumors expressing pmeLUC; assay: Real time in vivo imaging of ATP release; set-up: species or system mice; conditions: autophagy competent tumors, 48 hours post chemotherapy
Protocol: BALB/c mice were subcutaneously inoculated with 3×10^5 SCR or ATG5^KD CT26 clones stably expressing pmeLUC probe, and tumor growth was monitored every 2 days. When tumor became palpable (about 8 days after injection), mice were divided in four experimental groups. The first one was intraperitoneally injected with 200 µl PBS and after 48 hs from the first injection, 200 µl of PBS was injected again (control group). The second one was injected the first time with 100 mg/kg hydroxycitrate in 200 µl of PBS and 48 hs later again 100 mg/kg hydroxycitrate in 200 µl of PBS. The third one was intraperitoneally injected with 100 mg/kg hydroxycitrate in 200 µl of PBS and 48 hs later with 100 mg/kg hydroxycitrate in 200 µl of PBS and 5.17 mg/Kg MTX in 200 µl di PBS. The last group were injected the first time with 200 µl of PBS and 48 hs later with 5.17 mg/Kg MTX in 200 µl di PBS. Thereafter, mice were anesthetized and imaged with Xenogen—IVIS® Lumina II (Caliper, Hopkinton, Mass., USA). D-luciferin (150 mg/kg) was intraperitoneally administered to mice 15 minutes before acquisitions, which were performed immediately before and after 48 hrs from compound injections. The regions of interest were identified around tumor sites and in vivo luminescence was identified as photons/s using the Living ImageH software (Caliper).

| SMILES | AcCoA levels in mice tissues after 24 h starvation ([1]; intraperitoneal injection, starved mice, vs vehicle) | cytoplasmic protein acetylation in tissues of starved mice ([1]; parenteral administration) | starvation-induced autophagy in vivo ([1]; starved mice, LC3 lipidation and GFP-LC3 in heart and muscle) | autophagy (LC3 dots) in KRas induced lung adenocarcinomas (KRas-induced lung cancer; Atg5fl/+ tumors) | Foxp3+ regulatory T cells in tumor bed (KRas-induced lung cancer; KRas;Atg5fl/+ mice) | number and size of tumor lesions (KRas-induced lung cancer; KRas;Atg5fl/+ mice, 5 weeks in drinking water) | ratio between CD8+ and Foxp3+ lymphocytes (KRas-induced lung cancer; KRas;Atg5fl/+ tumors) | lung cancers in mice without adaptive immunity (KRas-induced lung cancer; Rag2−/− mice, data not shown) | extracellular ATP release in vivo, combined with MTX [2] |
| --- | --- | --- | --- | --- | --- | --- | --- | --- | --- |
| COC(=O)CCC(=O)C(=O)OC [DMKG, dimethyl-α-ketoglutarate] | increased cardiac AcCoA levels; also recorded: avoided the depletion of AcCoA | avoided the depletion of AcCoA, the deacetylation of cytosolic proteins; also recorded: avoided the depletion of AcCoA and the deacetylation of cytoplasmic proteins | inhibited starvation-induced autophagy in vivo; also recorded: efficiently reduced autophagy in vivo |  |  |  |  |  |  |
| O=C(O)CC(O)(C(=O)O)C(O)C(=O)O (stereo not drawn) [HC, hydroxycitrate] |  |  |  | induced autophagy in KRas induced lung adenocarcinomas | reduces CD3+ FOXP3 Regulatory T cells in tumor bed; also recorded: reduced the density of tumor infiltration by lymphocytes expressing the Treg marker Foxp3 | reduces tumor size and lesions; also recorded: reduced the number and size of Ad-Cre-induced tumor lesions | improvement in the ratio between CD8^+ and Foxp3^+ lymphocytes | had no positive effect on lung cancers evolving in Rag2^−− mice | significantly enhances ATP release; also recorded: higher level of extracellular ATP accumulation |
